In ChEMBL document CHEMBL6109053, “Aspirin-based PROTACs as COX-2 degraders for anti-inflammation” (Bioorg Med Chem, 2025):
pIC50: −log10 of the molar value. Activity calls are given as the source filed them. No cut-off for these calls is given here.

Tests used:
RAW264.7 [1] = assay: Cytotoxicity against mouse RAW264.7 cells at 20 uM incubated for 24 hrs by CCK-8 assay; type: toxicity, cell-based; conditions: raw264.7, 24 h
[2] = target: Protein cereblon/Prostaglandin G/H synthase 2 (Mus musculus) (UniProt Q05769+Q8C7D2); assay: PROTAC activity at COX-2/CRBN in mouse RAW264.7 cells assessed as downregulation of COX2 expression measured after 24 hrs by Western blot analysis; type: cell-based; conditions: dose 5-20 µM
Chain of Protein cereblon/Prostaglandin G/H synthase 2 (Mus musculus) (Q05769 whole entry, looked up): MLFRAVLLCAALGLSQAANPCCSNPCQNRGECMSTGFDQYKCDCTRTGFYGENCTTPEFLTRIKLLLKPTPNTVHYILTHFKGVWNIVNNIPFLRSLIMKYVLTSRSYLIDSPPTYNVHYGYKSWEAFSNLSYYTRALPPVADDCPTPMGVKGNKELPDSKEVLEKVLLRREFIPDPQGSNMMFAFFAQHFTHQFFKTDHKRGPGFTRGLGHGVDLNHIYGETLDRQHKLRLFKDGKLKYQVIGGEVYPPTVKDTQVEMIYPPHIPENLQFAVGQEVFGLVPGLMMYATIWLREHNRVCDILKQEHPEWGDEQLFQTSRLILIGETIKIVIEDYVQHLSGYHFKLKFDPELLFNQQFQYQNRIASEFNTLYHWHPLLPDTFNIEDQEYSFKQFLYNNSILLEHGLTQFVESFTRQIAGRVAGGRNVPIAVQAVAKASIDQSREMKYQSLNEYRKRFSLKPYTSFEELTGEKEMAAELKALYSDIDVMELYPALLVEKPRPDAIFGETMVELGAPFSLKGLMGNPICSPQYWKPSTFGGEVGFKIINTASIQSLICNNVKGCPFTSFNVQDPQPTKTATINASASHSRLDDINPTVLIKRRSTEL
Chain of Protein cereblon/Prostaglandin G/H synthase 2 (Mus musculus) (Q8C7D2 whole entry, looked up): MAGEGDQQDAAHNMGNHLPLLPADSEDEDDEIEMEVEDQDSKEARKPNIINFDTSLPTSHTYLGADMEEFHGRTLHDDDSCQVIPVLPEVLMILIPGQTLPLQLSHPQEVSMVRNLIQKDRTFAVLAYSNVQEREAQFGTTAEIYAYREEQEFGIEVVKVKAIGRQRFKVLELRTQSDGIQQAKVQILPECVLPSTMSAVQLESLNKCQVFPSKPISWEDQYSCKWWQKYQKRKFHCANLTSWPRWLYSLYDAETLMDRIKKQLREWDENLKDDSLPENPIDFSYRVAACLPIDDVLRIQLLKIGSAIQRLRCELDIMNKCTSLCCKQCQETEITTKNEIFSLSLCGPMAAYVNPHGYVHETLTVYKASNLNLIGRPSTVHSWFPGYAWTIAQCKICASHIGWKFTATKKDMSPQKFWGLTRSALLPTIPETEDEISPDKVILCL

RAW264.7 [3] = assay: Anti-inflammatory activity in LPS-induced mouse RAW264.7 cells; type: functional, cell-based
[4] = target: T1, Prostaglandin G/H synthase 2 (Homo sapiens, UniProt P35354); assay: Inhibition of human recombinant COX-2 using S0168-2 as substrate preincubated for 10 mins followed by substrate addition and measured after 10 mins by microplate reader analysis
T1 sequence (P35354 whole entry): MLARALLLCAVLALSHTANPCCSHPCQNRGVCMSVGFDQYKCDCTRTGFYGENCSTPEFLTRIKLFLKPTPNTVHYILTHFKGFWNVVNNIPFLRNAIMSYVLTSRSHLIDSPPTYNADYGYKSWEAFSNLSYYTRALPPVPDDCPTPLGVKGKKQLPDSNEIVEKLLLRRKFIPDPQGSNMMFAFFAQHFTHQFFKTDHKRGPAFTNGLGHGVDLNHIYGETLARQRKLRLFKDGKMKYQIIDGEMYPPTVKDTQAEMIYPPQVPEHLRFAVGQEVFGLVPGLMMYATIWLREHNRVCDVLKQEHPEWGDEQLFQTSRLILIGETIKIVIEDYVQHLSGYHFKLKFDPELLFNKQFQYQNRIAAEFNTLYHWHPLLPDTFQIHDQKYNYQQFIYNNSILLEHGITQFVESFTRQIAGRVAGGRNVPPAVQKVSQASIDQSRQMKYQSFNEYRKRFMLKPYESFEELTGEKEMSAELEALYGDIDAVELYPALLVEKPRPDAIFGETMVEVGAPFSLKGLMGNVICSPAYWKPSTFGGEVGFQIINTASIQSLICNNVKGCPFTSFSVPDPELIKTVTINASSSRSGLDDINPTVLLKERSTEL

RAW264.7 [5] = assay: PROTAC activity at COX-2/VHL in mouse RAW264.7 cells assessed as downregulation of COX2 expression measured after 24 hrs by Western blot analysis; type: cell-based; conditions: dose 5-20 µM

Q: For `O=C1CCC(N2C(=O)c3cccc(NC4CCC(NC(=O)CCCCn5cc(CCC(=O)Oc6ccccc6C(=O)O)nn5)CC4)c3C2=O)C(=O)N1` (configuration not stated), which Activity (RAW264.7 [1]) is on record?
A: The Activity was “Non-toxic”.

Q: And the Activity [2]?
A: Its Activity is “Dose-dependent-effect”.

Q: And the Activity (RAW264.7 [3])?
A: Its Activity is “Active”.

Q: How did the pIC50 [4] turn out when `Cc1ncsc1-c1ccc([C@@H](C)NC(=O)[C@@H]2C[C@@H](O)CN2C(=O)[C@@H](NC(=O)CCCCn2cc(CCC(=O)Oc3ccccc3C(=O)O)nn2)C(C)(C)C)cc1` was run?
A: Its pIC50 is 3.49.

Q: And the Activity (RAW264.7 [1])?
A: The Activity was “Non-toxic”.

Q: And the Activity (RAW264.7 [5])?
A: The Activity was “Dose-dependent-effect”.

Q: What about the Activity (RAW264.7 [3]) of the same molecule?
A: Its Activity is “Active”.
